Our source for the TGI values is PubChem BioAssay (NCI).

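Exposure lasted 48 hours, with cells grown in 96-well plates and compounds tested at five concentrations. Definition used: TGI = concentration required for complete inhibition of growth.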

Experiment in all cases: DTP human tumour cell line panel, 48 h
Test [1] deals with EKVX NSCLC.
Test [2] relates to NCI-H522 lung.
Test [3] deals with KM12 colon.
For test [4], the system named is A549 NSCLC.
In test [5] the test system is SNB-75 CNS.
Test [6] has as its system OVCAR-4 ovarian.
The test system of test [7] is SK-MEL-2 melanoma.
Test [8] has as its system 786-0 renal.
Test [9] has as its system HCC-2998 colon.
Test [10] concerns RXF 393 renal.
Test [11] relates to HCT-15 colon.
The test system of test [12] is M14 melanoma.
Test [13] concerns OVCAR-3 ovarian.
The subject of test [14] is NCI-H23 lung.
Test [15] concerns CCRF-CEM leukemia.
Test [16] concerns HOP-92 NSCLC.
The test system of test [17] is SF-539 CNS.

As to `COC(=O)/C(=C/CC(N=C(c1ccccc1)c1ccccc1)C(=O)OC)N=C(c1ccccc1)c1ccccc1` (stereo unspecified), the TGI in test [1] is above 100 µM; in [2], above 100 µM; in [3] it was above 100 µM; in [4], above 100 µM; in test [5], 83.9 µM; in test [6] it was above 100 µM. In addition, the TGI in test [7], in test [8], in [9], in test [10], in test [11] and in test [12] was above 100 µM in each case. Also, the TGI in test [13], in test [14] and in test [15] was above 100 µM each time.

In the case of `COc1cc(-c2c(C)c(C)nc(OC)c2C#N)cc(OC)c1OC`, the TGI in test [16], in [17], in test [1], in test [3], in test [4] and in test [5] was above 100 µM in each case. In addition, the TGI in test [6], in test [7], in test [8], in [9], in [10] and in test [11] was above 100 µM in each case. In addition, the TGI in [12], in [13], in test [14] and in test [15] was above 100 µM each time.

As to `Cn1c2cccc3nnc4cccc(c4c32)n1C`, the TGI in test [16], in test [17], in test [1], in [3], in test [4] and in [6] was above 100 µM each time. Further, the TGI in test [7], in test [8], in test [9], in test [10], in test [11] and in test [12] was above 100 µM throughout. The TGI in test [13] and in test [15] was above 100 µM each time.

Turning to `CSC(=N)N1N=C2c3ccccc3CC[C@@H]2[C@@H]1c1ccccc1`, the TGI in [16] stood at 20.4 µM; in test [17] it was 27.2 µM; in [1], 44.4 µM; in [2], 27.8 µM; in [3] it was 27.9 µM; in test [4], 34.2 µM. Also, the TGI is 49.3 µM in [6]; 29.2 µM in test [7]; 25.6 µM in [8]; 29.4 µM in [9]; 27.7 µM in test [10]; 31 µM in [11]. Further, the TGI in test [12] worked out at 27.4 µM; in test [13], 36 µM; in test [14] it was 35.3 µM; in [15] it was 65 µM.

In the case of `O=C1/C(=C/c2ccccc2)CCCC/C1=C\c1ccccc1`, the TGI in test [16], in test [17], in test [1], in test [3], in test [4] and in test [5] was above 100 µM in each case. Also, the TGI was above 100 µM in [6]; above 100 µM in test [7]; above 100 µM in test [8]; above 100 µM in [9]; 59.5 µM in [10]; above 100 µM in test [11]. Besides, the concentration for total growth inhibition (TGI) in test [12], in test [13] and in test [14] was above 100 µM each time.

For the compound `CCOC(=O)C1C(c2ccc([N+](=O)[O-])cc2)NC(c2ccc([N+](=O)[O-])cc2)C(C(=O)OC)S1(=O)=O` (stereo unspecified), the TGI in test [1], in test [2], in test [3], in test [4], in [5] and in test [6] was above 100 µM throughout. Also, the TGI in test [7], in test [8], in [9], in test [10], in test [11] and in [12] was above 100 µM each time. The TGI in test [13], in [14] and in [15] was above 100 µM each time.

For `Cc1c(CCl)c(=O)oc2c(C)c3occ(CCl)c(=O)c3cc12`, the TGI was 44.9 µM in test [17]; above 100 µM in test [1]; 30.5 µM in test [2]; above 100 µM in test [3]; above 100 µM in test [4]; 44.8 µM in test [5]. Also, the TGI in test [7] was above 100 µM; in [8], above 100 µM; in test [9], above 100 µM; in [10] it was 30.9 µM; in test [11], 64.6 µM; in test [12] it was 37.5 µM. Moreover, the results for the TGI in test [13], in test [14] and in test [15] were above 100 µM, 83.7 µM and 14.2 µM, respectively.

One may read the TGI as the concentration at which net growth stops. Low readings indicate greater sensitivity of the cells, high ones lower sensitivity of the cells.
